# Where “and” joins values, the source holds several entries; their conditions need not be identical. Identical values can stand only once.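 Assay format: 96-well plates, 48-hour exposure. The concentration for 50% growth inhibition is given as GI50. Definition used: TGI = concentration required for complete inhibition of growth.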
# Legend:
# Experiment in all cases: NCI-60 cell line screen, 48 h
# [1] = system: RPMI-8226 leukemia
# [2] = system: 786-0 renal
# [3] = system: SN12C renal
# [4] = system: HL-60(TB) leukemia
# [5] = system: HCT-15 colon
# [6] = system: OVCAR-3 ovarian
# [7] = system: HOP-62 NSCLC
# [8] = system: SW-620 colon
# [9] = system: SNB-75 CNS
# [10] = system: BT-549 breast
structure (smiles),measurement,setting,value
CN(C)CCN1N=Nc2cccc3cccc1c23,TGI,[1],> 64.3 µM
same,TGI,[2],> 100 µM
same,TGI,[3],> 100 µM
same,TGI,[4],> 70.8 µM
same,TGI,[5],> 100 µM
same,TGI,[6],> 100 µM
same,TGI,[7],> 100 µM
same,TGI,[8],> 53.6 µM
same,TGI,[9],> 100 µM
Cc1c2cc[n+](C)cc2c(C)c2c1[nH]c1ccc(OC(C)C)cc12,TGI,[1],36.9 µM and > 60.5 µM
same,GI50,[2],0.223 µM and 1.41 µM
same,TGI,[2],9.1 µM and 32.5 µM
same,TGI,[3],7.69 µM and 9.59 µM
same,TGI,[4],11.2 µM and 39.9 µM
same,TGI,[5],> 100 µM
same,TGI,[6],14.6 µM and 26.7 µM
same,GI50,[7],1.23 µM and 3.13 µM
same,TGI,[7],19.9 µM and 27.3 µM
same,TGI,[8],37.9 µM and 21.3 µM
same,TGI,[9],0.82 µM and 1.99 µM
Nc1ccc(CCN2CCN(c3cccc(C(F)(F)F)c3)CC2)cc1,TGI,[1],> 100 µM
same,TGI,[2],> 100 µM
same,TGI,[3],> 100 µM
same,TGI,[4],41.8 µM
same,TGI,[5],> 100 µM
same,TGI,[6],> 100 µM
same,TGI,[7],> 100 µM
same,TGI,[9],> 100 µM
COc1cccc(/C=C\c2cc(OC)c(OC)c(OC)c2)c1,TGI,[1],42.3 µM
same,TGI,[2],71.5 µM
same,TGI,[3],> 100 µM
same,TGI,[5],> 100 µM
same,TGI,[6],79.1 µM
same,TGI,[7],> 100 µM
same,TGI,[8],> 100 µM
same,TGI,[9],20.4 µM
O=C(O)C(Cc1ccccc1-c1ccccc1)C(=O)O,TGI,[1],> 100 µM
same,TGI,[2],> 100 µM
same,TGI,[3],> 100 µM
same,TGI,[5],> 100 µM
same,TGI,[10],> 100 µM
same,TGI,[6],> 100 µM
same,TGI,[8],> 100 µM
same,TGI,[9],> 100 µM
COc1cc(-c2cc(C(=O)Nc3nc4ccccc4s3)nc3cc(-c4ccccc4)nn23)cc(OC)c1OC,GI50,[1],> 100 µM
same,TGI,[1],> 100 µM
same,GI50,[2],2.59 µM
same,TGI,[2],12.8 µM
same,GI50,[3],85.1 µM
same,TGI,[3],> 100 µM
same,GI50,[5],> 100 µM
same,TGI,[5],> 100 µM
same,GI50,[10],6.33 µM
same,TGI,[10],47 µM
same,GI50,[6],13.3 µM
same,TGI,[6],52.1 µM
same,GI50,[7],9.87 µM
same,TGI,[7],27.2 µM
same,GI50,[9],2.77 µM
same,TGI,[9],16.1 µM
CCC12CCC(O)C1N(C)CCC2Sc1ccccc1 (stereo not drawn),TGI,[1],> 100 µM
same,TGI,[2],> 100 µM
same,TGI,[3],> 100 µM
same,TGI,[4],56.5 µM
same,TGI,[5],> 100 µM
same,TGI,[6],> 100 µM
same,TGI,[7],> 100 µM
same,TGI,[8],> 100 µM
same,TGI,[9],87.9 µM
O=C1CC2(CCCc3sccc32)C(=O)N1 (stereo not drawn),TGI,[1],> 100 µM
same,TGI,[2],> 100 µM
same,TGI,[3],> 100 µM
same,TGI,[4],> 100 µM
same,TGI,[5],> 100 µM
same,TGI,[6],> 100 µM
same,TGI,[7],> 100 µM
same,TGI,[8],> 100 µM
same,TGI,[9],> 100 µM
CC(C)SC1SCC2C(=O)N(C)C3(CC3C)C(=O)OCC(NC(=O)c3nc4ccccc4cc3O)C(=O)NC(C)C(=O)N(C)C1C(=O)N(C)C1(CC1C)C(=O)OCC(NC(=O)c1nc3ccccc3cc1O)C(=O)NC(C)C(=O)N2C (stereo not drawn),TGI,[1],< 0.0001 µM
same,TGI,[2],< 0.0001 µM
same,TGI,[4],< 0.0001 µM
same,TGI,[6],< 0.0001 µM
C=C(CN1CCc2ccccc2C1)c1ccc(/C=C/C(=O)Nc2ccccc2N)cc1,GI50,[1],2.92 µM
same,TGI,[1],13.4 µM
same,GI50,[2],3.81 µM
same,TGI,[2],24.4 µM
same,GI50,[3],4.49 µM
same,TGI,[3],31 µM
same,GI50,[4],4.28 µM
same,TGI,[4],76.8 µM
same,GI50,[5],1.69 µM
same,TGI,[5],62.9 µM
same,GI50,[10],10.3 µM
same,TGI,[10],> 100 µM
same,GI50,[6],5.59 µM
same,TGI,[6],51 µM
same,GI50,[7],5.17 µM
same,TGI,[7],> 100 µM
same,GI50,[8],5.07 µM
same,TGI,[8],> 100 µM
COCC1N=C(c2ccc(OC)c(OCc3ccccc3)c2OC)O[C@H]1c1ccccc1 (stereo partly drawn),TGI,[1],36.9 µM
same,TGI,[2],96.1 µM
same,TGI,[3],66.4 µM
same,TGI,[4],40.4 µM
same,TGI,[5],94.5 µM
same,TGI,[6],55 µM
same,TGI,[7],> 100 µM
same,TGI,[8],> 100 µM
same,TGI,[9],> 100 µM
O=C(Nc1ccccc1)O/N=C1/CCCC/C1=C\c1ccccc1,TGI,[1],52.5 µM
same,TGI,[2],32.5 µM
same,TGI,[3],31 µM
same,TGI,[5],23.4 µM
same,TGI,[6],28.5 µM
same,TGI,[7],40.4 µM
same,TGI,[8],29.9 µM
same,TGI,[9],28.6 µM
O=[N+]([O-])c1ccc2c(c1)OCCOCCOc1ccc([N+](=O)[O-])cc1OCCOCCO2,TGI,[1],> 100 µM
same,TGI,[2],> 100 µM
same,TGI,[3],> 100 µM
same,TGI,[4],> 100 µM
same,TGI,[5],> 100 µM
same,TGI,[6],> 100 µM
same,TGI,[7],> 100 µM
same,TGI,[8],> 100 µM
same,TGI,[9],> 100 µM
COC(=O)C1Cc2c(n(C)c3ccccc23)C(c2ccccc2)N1 (stereo not drawn),TGI,[1],> 100 µM
same,TGI,[2],> 100 µM
same,TGI,[3],> 100 µM
same,TGI,[4],48 µM
same,TGI,[5],> 100 µM
same,TGI,[6],> 100 µM
same,TGI,[8],> 100 µM
same,TGI,[9],> 100 µM
CCOC(=O)Oc1c(OC)cc(C(=O)c2ccc(OC)c(OC(=O)CCl)c2OC)cc1OC,GI50,[1],1.98 µM
same,TGI,[1],> 100 µM
same,GI50,[2],3.45 µM
same,TGI,[2],> 100 µM
same,GI50,[3],3.39 µM
same,TGI,[3],> 100 µM
same,GI50,[5],0.415 µM
same,TGI,[5],> 100 µM
same,GI50,[10],0.996 µM
same,TGI,[10],9.5 µM
same,GI50,[6],0.414 µM
same,TGI,[6],23 µM
same,GI50,[7],0.836 µM
same,TGI,[7],> 100 µM
same,GI50,[8],0.455 µM
same,TGI,[8],> 100 µM
same,GI50,[9],0.528 µM
same,TGI,[9],> 100 µM
C=CC[P@@]1(=O)O[C@H](c2ccccc2)C(C)N1C(C)C (stereo partly drawn),TGI,[1],> 100 µM
same,TGI,[2],> 100 µM
same,TGI,[3],> 100 µM
same,TGI,[4],> 100 µM
same,TGI,[5],> 100 µM
same,TGI,[6],> 100 µM
same,TGI,[8],> 100 µM
same,TGI,[9],> 100 µM
O=C(Nc1cccc(C2=NCCN2)c1)c1ccc(OCCCOc2ccc(C(=O)Nc3cccc(C4=NCCN4)c3)cc2)cc1,GI50,[2],3.69 µM
same,TGI,[2],> 100 µM
same,GI50,[4],2.3 µM
same,TGI,[4],> 100 µM
same,GI50,[5],20.2 µM
same,TGI,[5],> 100 µM
same,GI50,[7],4.45 µM
same,TGI,[7],> 100 µM
COC(=O)c1ccc(-c2nc3cc(F)c(F)cc3nc2C#N)cc1,GI50,[2],26.4 µM
same,TGI,[2],50 µM
same,GI50,[3],1.66 µM
same,TGI,[3],4.9 µM
same,GI50,[4],3.23 µM
same,TGI,[4],9.51 µM
same,GI50,[5],1.59 µM
same,TGI,[5],6.47 µM
same,GI50,[10],8.24 µM
same,TGI,[10],16.6 µM
same,GI50,[6],1.71 µM
same,TGI,[6],4.99 µM
same,GI50,[7],9.9 µM
same,TGI,[7],18 µM
same,GI50,[8],4.66 µM
same,TGI,[8],16.8 µM
O=C(Oc1cccc(Nc2ncnc3ccccc23)c1)c1ccccc1Cl,GI50,[2],20.8 µM
same,TGI,[2],71.9 µM
same,GI50,[3],15.5 µM
same,TGI,[3],49.6 µM
same,GI50,[4],79.4 µM
same,TGI,[4],> 100 µM
same,GI50,[5],18.9 µM
same,TGI,[5],46.6 µM
same,GI50,[10],24.8 µM
same,TGI,[10],62.3 µM
same,GI50,[6],16.7 µM
same,TGI,[6],56.9 µM
same,GI50,[7],25.6 µM
same,TGI,[7],83.9 µM
same,GI50,[8],21.8 µM
same,TGI,[8],49.2 µM
COc1c(O)cc2oc3cc(O)c(CC=C(C)C)c(O)c3c(=O)c2c1C/C=C(\C)CCC=C(C)C,GI50,[1],10.6 µM
same,TGI,[1],31.3 µM
same,GI50,[2],6.36 µM
same,TGI,[2],11.6 µM
same,GI50,[3],5.68 µM
same,TGI,[3],10.9 µM
same,GI50,[4],7.69 µM
same,TGI,[4],17.7 µM
same,GI50,[5],5.69 µM
same,TGI,[5],11.7 µM
same,GI50,[6],5.31 µM
same,TGI,[6],9.71 µM
same,GI50,[7],5.66 µM
same,TGI,[7],10.1 µM
same,GI50,[8],5.8 µM
same,TGI,[8],10.4 µM
same,GI50,[9],3.58 µM
same,TGI,[9],7.46 µM

# — PubChem BioAssay (NCI)
